# According to patent US20140045779A1, “COMPOUNDS CONTAINING AN ALICYCLIE STRUCTURE AND ANTI-TUMOR APPLICATION” (priority 2011, published 2014):
# Where two headings read alike, the source gives them in different places.
# Legend:
# [1] = test system: mouse ascites sarcoma S180; assay: Efficacy studies of anti-tumor in vivo, S180 sarcoma in Kunming mice; settings: for Difference from the control group in S180 sarcoma growth: Kunming mice, S180, p<0.05; for Growth Inhibition of S180 sarcoma, inhibition rate: mouse, in vivo, ip
# [2] = test system: MCF7 cells (breast cancer cells); assay: In vitro anti-cancer cell experiment (MTT), MCF7; settings: Homo sapiens
# [3] = MCF7, 48 h, read-out: Growth Inhibition of cell line IC50, MCF7
# [4] = MCF7, read-out: IC50, anti-proliferative effect on MCF7 cells
"IC50 [2, 3] [µg/mL]","IC50 [2, 4] [µg/mL]",Molecule,Difference from the control group in S180 sarcoma growth [1],"Growth Inhibition of S180 sarcoma, inhibition rate [1] [%]"
,,"Nc1ccc2c(c1)C(=O)N(CC(=O)NC13CC4CC(CN(C4)C1)C3)C2=O [Example 9, N-((1r,3r,5R,7S)-1-azaadamantan-3-yl)-2-(5-amino-1,3-dioxoisoindolin-2-yl)acetamide]",significant difference,
,,"O=C(CN1C(=O)c2ccc([N+](=O)[O-])cc2C1=O)NC12CC3CC(CN(C3)C1)C2 [Example 8, N-((1r,3r,5R,7S)-1-azaadamantan-3-yl)-2-(5-nitro-1,3-dioxoisoindolin-2-yl)acetamide]",significant difference,
56.3,56.3,"OC12CC3CC(CC(C3)O1)C2 [Example 47, 2-oxaadamantan-1-ol]",,
,,"O=C(Cn1cnc(-c2ccccc2)c1-c1ccccc1)NC12CC3CC(CC(C3)C1)C2 [Example 11, N-((1s,3s)-adamantan-1-yl)-2-(4,5-diphenyl-1H-imidazol-1-yl)acetamide]",significant difference,
6.94,6.94,"COc1cc(C23CN4CN(C2)CC(c2cc(OC)c(OC)c(OC)c2)(C4)C3=O)cc(OC)c1OC [Example 62, (1r,3r,5r,7r)-5,7-bis(3,4,5-trimethoxyphenyl)-1,3-diazaadamantan-6-one]",,
44.2,44.2,"O=C1C2CC3CC(C2)OC1C3 (stereo not shown) [Example 43, 2-oxaadamantan-4-one]",,
,,"(1R,3S,5R,7S,Z)-1-hydroxy-3-methyl-2- oxaadamantan-6-one oxime [Example 74]",,20
,,"(1R,3R,5S,7S,Z)-1-azaadamantan-4- one oxime [Example 55]",,32
,,"O=C(CN1C(=O)C2C3CC(O)C(O3)C2C1=O)NC12CC3CC(CN(C3)C1)C2 (stereo not shown) [Example 7, N-((1r,3r)-1-azaadamantan-3-yl)-2-(5-hydroxy-1,3-dioxohexahydro-1H-4,7-epoxyisoindol-2(3H)-yl)acetamide]",significant difference,
,,"COC(=O)C12C3CC4CC5C3CC(CC5C1(C(=O)OC)N4C)N2C [Example 107, dimethanol decahydro-2,8,4,6-(cyclobutyl[1,2,3,4]dimethyl) naphthalene-2,4,4a,6-dicarboxylate]",significant difference,

Molecule,"IC50 [2, 3] [µg/mL]","IC50 [2, 4] [µg/mL]",Difference from the control group in S180 sarcoma growth [1],"Growth Inhibition of S180 sarcoma, inhibition rate [1] [%]"
"CCCCCNC12CN3CN(CN(C3)C1)C2 [Example 68, (1s,3s,5s)-N-pentyl-1,3,5-triazaadamantan-7-amine]",2.28,2.28,significant difference,
